Read-outs that look alike come from different tables or passages of the source.
How the values were obtained:
MOLM14 cells (MLL-AF9) = assay: Proliferation assay (spheroid-like growth, 8 d, live-cell imaging), MOLM14; format: cell-based, human; details: absolute IC50 from AUC of confluence, read-out: (3) Spheroid assay MOLM14 (IC50 (μM))
Method: (§1) The anti-proliferative effect of menin/MLL protein/protein interaction inhibitor test compounds was assessed in human leukemia cell lines. The cell lines MV-4-1 1 and MOLM14 harbor MEL translocations and express the MEL fusion proteins MLL-AF4 and MLL-AF9, respectively, as well as the wildtype protein from the second allele. […] K562 was used as a control cell line containing two MLL wildtype alleles in order to exclude compounds that display general cytotoxic effects.
MV-4-1 1 and MOLM14 were cultured in RPMI-1640 (Sigma Aldrich) supplemented with 10% fetal bovine serum (HyClone), 2 mM L-glutamine (Sigma Aldrich) and 50 μg/ml gentamycin (Gibco). K562 were propagated in RPMI-1640 (Sigma Aldrich) supplemented with 20% fetal bovine serum (HyClone), 2 mM L-glutamine (Sigma Aldrich) and 50 μg/ml gentamycin (Gibco).
In order to assess the anti-proliferative effects, 1,500 MV-4-1 1, 300 MOLM14 or 750 K562 cells were seeded in 200 μl media per well in 96-well round bottom, ultra-low attachment plates (Costar, catalogue number 7007). Cell seeding numbers were chosen based on growth curves to ensure linear growth throughout the experiment. Test compounds were added at different concentrations and the DMSO content was normalized to 0.3%>. Cells were incubated for 8d at 37° C. and 5% C02. Spheroid like growth was monitored in real-time by live-cell imaging (IncuCyteZOOM, Essenbio, 4× objective) acquiring one image every four hours for 8d. Confluence (%) as a measure of spheroid size was determined using an integrated analysis tool.
In order to determine the cumulative effect of the test compounds over time, the area under the curve (AUC) in a plot of confluence against time was calculated. Confluence at the beginning of the experiment (t=0) was used as baseline for the AUC calculation.
Absolute IC50 values were calculated according to the following procedure: % Control=(AUC sample/AUC control)*100 AUC control=mean AUC of control values(cells without compound/DMSO as vehicle control)
A non-linear curve fit was applied using the least squares (ordinary) fit method to the plot of % control versus compound concentration. Based on this, the absolute IC50 value (half maximal inhibitory concentration of the test compound causing an anti-proliferative effect of 50% relative to the vehicle control) was calculated.

[1] = target: T1, menin / FITC-MBM1 peptide (Menin/MLL) (Homo sapiens, UniProt O00255); assay: Menin/MLL fluorescence polarization (FP) assay; format: binding; details: read-out: (1) Menin FP assay (IC50 (μM))
T1 sequence (O00255 1-610): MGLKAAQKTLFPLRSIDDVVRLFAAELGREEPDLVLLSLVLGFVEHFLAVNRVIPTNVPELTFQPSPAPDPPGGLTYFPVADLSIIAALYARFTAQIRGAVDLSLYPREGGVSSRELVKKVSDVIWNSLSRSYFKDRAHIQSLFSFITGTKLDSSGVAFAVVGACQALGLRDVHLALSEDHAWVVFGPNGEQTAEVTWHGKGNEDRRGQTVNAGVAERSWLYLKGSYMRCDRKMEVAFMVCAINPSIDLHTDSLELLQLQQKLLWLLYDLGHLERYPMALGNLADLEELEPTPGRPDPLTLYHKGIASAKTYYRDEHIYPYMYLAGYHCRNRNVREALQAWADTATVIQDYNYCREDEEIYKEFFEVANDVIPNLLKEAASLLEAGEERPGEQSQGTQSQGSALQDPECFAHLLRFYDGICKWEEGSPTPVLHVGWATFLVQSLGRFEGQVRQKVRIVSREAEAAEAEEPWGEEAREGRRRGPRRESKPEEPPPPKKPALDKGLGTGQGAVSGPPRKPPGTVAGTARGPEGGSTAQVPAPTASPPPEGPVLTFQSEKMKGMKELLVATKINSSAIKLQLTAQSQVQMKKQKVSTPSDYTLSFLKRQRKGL
Method: Pharmacological Part 1) Menin/MLL Fluorescence Polarization Assay
To a non-surface binding, black 384-well microtiter plate was added 50 nL 160× test compound in DMSO and 4 μL 2× menin in assay buffer (40 mM TrisHCl, pH 7.5, 50 mM NaCl, 1 mM DTT and 0.001% Tween 20). After incubation of test compound and menin for 10 min at ambient temperature, 4 μL 2×FITC-MBM1 peptide (FITC-β-alanine-SARWRPPARPGT-NH2) in assay buffer was added, the microtiter plate centrifuged at 1000 rpm for 1 min and the assay mixtures incubated for 15 min at ambient temperature. The relative amount of menin -FITC-MBM1 complex present in an assay mixture is determined by measuring the fluorescence polarization (FP) of the FITC label with a BMG Pherastar plate reader (ex. 485 nm/em. 520 nm) at ambient temperature. The final concentrations of reagents in the binding assay are 100 nM menin, 5 nM FITC-MBM1 peptide and 0.625%>DMSO in assay buffer. Dose-response titrations of test compounds are conducted using an 11 point, three-fold serial dilution scheme, starting at 31 μM.
Compound potencies were determined by first calculating % inhibition at each compound concentration according to equation 1: % inhibition=((HC−LC)−(FPcompound−LC))/(HC−LC))*100 (Eqn 1)
Where LC and HC are the FP values of the assay in the presence or absence of a saturating concentration of a compound that competes with FITC-MBM1 for binding to menin, and FP^compound is the measured FP value in the presence of the test compound. HC and LC FP values represent an average of at least 16 replicates per plate.
Where Bottom and Top are the lower and upper asymptotes of the dose-response curve, respectively, IC50 is the concentration of compound that yields 50% inhibition of signal and h is the Hill coefficient.

[2] = test system: K562 cells (two MLL wildtype alleles); assay: Proliferation assay (spheroid-like growth, 8 d, live-cell imaging), K562 control cell line; format: cell-based; details: Homo sapiens, 192 h, absolute IC50 from AUC of confluence, read-out: (3) Spheroid assay K562
Method: as §1
MV-4-1 1 and MOLM14 were cultured in RPMI-1640 (Sigma Aldrich) supplemented with 10% fetal bovine serum (HyClone), 2 mM L-glutamine (Sigma Aldrich) and 50 μg/ml gentamycin (Gibco). […]
In order to assess the anti-proliferative effects, 1,500 MV-4-1 1, 300 MOLM14 or 750 K562 cells were seeded in 200 μl media per well in 96-well round bottom, ultra-low attachment plates (Costar, catalogue number 7007). […] Spheroid like growth was monitored in real-time by live-cell imaging (IncuCyteZOOM, Essenbio, 4× objective) acquiring one image every four hours for 8d. Confluence (%) as a measure of spheroid size was determined using an integrated analysis tool.
In order to determine the cumulative effect of the test compounds over time, the area under the curve (AUC) in a plot of confluence against time was calculated. […]

Row | SMILES | IC50 (MOLM14 cells (MLL-AF9); Homo sapiens, MOLM-14, 192 h) | IC50 [1] | IC50 (MOLM14 cells (MLL-AF9)) | IC50 [2]
1 | CC(C)CNC1CCCN(c2ncnc3sc(CC(F)(F)F)cc23)CC1 (single isomer, unassigned) [Compound B1A, N-isobutyl-1-(6-(2,2,2-trifluoroethyl)thieno[2,3-d]pyrimidin-4-yl)azepan-4-amine] | 11.3 µM | 0.054 µM | – | –
2 | CC(C)CNC1CCCN(c2ncnc3sc(CC(F)(F)F)cc23)CC1 (single isomer, unassigned) [Compound B1B, N-isobutyl-1-(6-(2,2,2-trifluoroethyl)thieno[2,3-d]pyrimidin-4-yl)azepan-4-amine] | – | 0.44 µM | > 15 µM | –
3 | FC(F)(F)Cc1cc2c(N3CCC[C@@H](NCc4ccccc4)CC3)ncnc2s1 [Compound 3, (R)N-benzyl-1-(6-(2,2,2-trifluoroethyl)thieno[2,3-d]pyrimidin-4-yl)azepan-4-amine] | 3.1 µM | 0.038 µM | – | 9.7 µM
4 | FC(F)(F)Cc1cc2c(N3CCC[C@H](NCc4ccccc4)CC3)ncnc2s1 [Compound 4, (S)-N-benzyl-1-(6-(2,2,2-trifluoroethyl)thieno[2,3-d]pyrimidin-4-yl)azepan-4-amine] | 7.6 µM | 0.23 µM | – | 8.8 µM

Reference: patent US11530226B2, “Azepane inhibitors of menin-MLL interaction” (Janssen Pharmaceutica NV, priority 2016, dated 2022)
